# Measurements from patent US11236107B2, “Crystal of tricyclic compound” (Chia Tai Tianqing Pharmaceutical Group Co., Ltd., priority 2017, dated 2022).
# Experiments:
# [1] = molecular target: T1, IDO1 enzyme in Hela cells (Homo sapiens, UniProt P14902); experiment: hIDO1 cytological activity assay (kynurenine in Hela cells by LC-MS); type: cell-based; settings: IDO1 induced with 100 ng/mL recombinant human γ-interferon, 20 h, read-out: hIDO1 Cytological active IC50
# T1 construct: recombinant human γ-interferon was added to a final concentration of 100 ng/mL to induce IDO1 expression; endogenous in cells; host or cells: Hela cells
# Procedure: Experimental Example 2: hIDO1 Cytological Activity Assay
# The change of kynurenine in Hela cells was detected by the LC-MS method, and the IC50 value of the compound was used as an index to evaluate the inhibitory effect of the compound of formula I on IDO1 enzyme.
# The culture medium, trypsin and DPBS were preheated in a 37° C. water bath. The culture medium for cell culture was sucked out and washed with 10 mL of DPBS; the preheated trypsin was added into the culture flask, and the flask was rotated to allow the trypsin to uniformly cover it, and then placed in a 37° C., 5% CO2 incubator to digest for 1-2 min; in each T150, cells were dispersed with 10-15 mL of the culture medium, centrifuged at 800 rpm for 5 min, and then resuspended with 10 mL of medium; 1 mL of cell suspension was pipetted and cells were counted with Vi-cell; Hela cells were diluted with the culture medium to 5×10^5/mL, 80 μL of the solution was added to a 96-cell plate, and cultured at 37° C. for 5-6 h in a 5% CO2 incubator.
# The compound was diluted to 1 mM with DMSO, and then diluted 3-fold in duplicate wells, with 9 gradients. […]
# 10 μL of recombinant human γ-interferon was added to a final concentration of 100 ng/mL to induce IDO1 expression. […] The content of kynurenine was detected by LC-MS. […]
# [2] = molecular target: T2, recombinant human IDO1 enzyme (Homo sapiens, UniProt P14902); experiment: In vitro hIDO1 enzyme activity test (NFK Green fluorescence); type: biochemical; settings: recombinant human IDO1, L-tryptophan substrate, pH 6.5, NFK Green readout
# T2 construct: purchased NTRC NTRC-hIDO-10K
# Procedure: Experimental Example 1: In Vitro hIDO1 Enzyme Activity Test
# The change of NFK production was detected by using the NFK Green™ fluorescent molecule, which is the metabolite of the IDO1 enzyme, and the IC50 value of the compound was used as an index, to evaluate the inhibitory effect of the compound of formula I on the recombinant human IDO1 enzyme.
# The compound of formula I was diluted to 1 mM with DMSO, and then diluted 3-fold in duplicate wells, with 10 gradients. 48 μL of 50 mM phosphate buffer (pH 6.5) was transferred and added to the compound plate via Bravo automated liquid handling platform. 2 μL of the diluted solution of the compound in DMSO was then added thereto and mixed, followed by transferring 10 μL thereof to an enzyme reaction plate.
# The IDO1 enzyme was diluted to 20 nM in the reaction buffer (50 mM phosphate buffer (pH 6.5), 0.1% Tween-20, 2% glycerol, 20 mM ascorbic acid, 20 μg/mL catalase and 20 μM methylene blue), 20 μL of which was transferred to an enzyme reaction plate and incubated at 23° C. for 30 min. The reaction was started by adding 10 μL of 400 μM L-tryptophan substrate and incubated at 23° C. for 90 min. 10 μL of NFK Green™ fluorescent dye was added thereto, and the plate was sealed with the microplate sealing film, incubated at 37° C. for 4 h, and then read on Envision Multimode Microplate Reader (Ex 400 nm/Em 510 nm). […]
# T1 sequence (P14902 whole entry): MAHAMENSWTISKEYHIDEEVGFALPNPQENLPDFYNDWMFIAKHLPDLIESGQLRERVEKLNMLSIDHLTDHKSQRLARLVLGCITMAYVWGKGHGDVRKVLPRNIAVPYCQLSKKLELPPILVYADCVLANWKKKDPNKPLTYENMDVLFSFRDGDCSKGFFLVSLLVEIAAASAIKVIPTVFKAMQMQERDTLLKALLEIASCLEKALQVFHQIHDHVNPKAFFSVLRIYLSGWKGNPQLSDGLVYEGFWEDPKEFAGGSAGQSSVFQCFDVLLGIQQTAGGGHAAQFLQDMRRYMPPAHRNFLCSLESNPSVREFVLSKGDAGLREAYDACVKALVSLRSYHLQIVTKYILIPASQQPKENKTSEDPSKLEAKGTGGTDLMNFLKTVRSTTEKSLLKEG
# T2 sequence (P14902 whole entry): as above
smiles,measurement,setting,value
"FC1(F)CCC([C@H]2c3sccc3-c3cncn32)CC1 [Compound of formula I, (S)-8-(4,4-difluorocyclohexyl)-8H-thieno[3,4]pyrrolo[1,5-a]imidazole]",IC50,[1],74.9 nM
same,IC50,[2],48 nM
